Experimental findings from patent publication US20210269434A1, “TRICYCLIC COMPOUNDS AS INHIBITORS OF KRAS” (Incyte Corporation, priority 2020, published 2021) are described below.

Experiment [1] relates to MIA PaCa-2 (KRAS G12C) cells. As to the kind of experiment: Cellular pERK HTRF assay (KRAS_G12C pERK). Format: cell-based, human. As to conditions: Homo sapiens, MIA PaCa-2, 4 hours incubation, read-out: G12C_pERK. Summed up:
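MIA PaCa-2 cells plated overnight, then exposed to compound for 4 h at 37 °C (G12C compounds). Phospho-ERK1/2 measured in lysates by HTRF (665/620 nm) after overnight antibody incubation; IC50 from percent inhibition versus log concentration.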
(Time-resolved FRET reads energy transfer from a long-lived donor to a nearby acceptor.)

The next experiment addresses KRAS G12C (Homo sapiens, UniProt P01116, G12C). As to the kind of experiment: GDP-GTP exchange assay (KRAS_G12C exchange). Format: biochemical. As to conditions: bodipy-GDP loaded KRAS G12C 2.5 nM, SOS1 150 nM, GppNHp; 2 hours pre-incubation, 2 hours reaction; read-out: G12C_exchange. Summed up: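 Fluorescence exchange of bodipy-GDP for GppNHp, SOS1-driven, read at 485/520 nm; IC50 from four-parameter variable-slope fit. Both mutants used 2.5 nM final labelled protein and a 2 h compound pre-incubation. G12C reaction had 500 uM GppNHp and 150 nM SOS1 for 2 h; G12D ran 4 h.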

Chain of KRAS G12C (P01116 1-188 isoform P01116-2 G12C): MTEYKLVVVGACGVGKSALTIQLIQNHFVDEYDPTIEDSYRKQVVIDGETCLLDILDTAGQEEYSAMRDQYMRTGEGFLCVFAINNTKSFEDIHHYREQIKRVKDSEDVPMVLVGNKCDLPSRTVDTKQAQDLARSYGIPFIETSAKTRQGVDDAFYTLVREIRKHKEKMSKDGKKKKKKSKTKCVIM

As to `COC/C=C/C(=O)N1CC[C@H](n2nnc3c(OC[C@@H]4CCCN4C)nc4c(F)c(-c5cccc(C)c5C)c(C)cc4c32)C[C@H]1CC#N` [Example 140, 2-((2S,4S)-4-(7-(2,3-dimethylphenyl)-6-fluoro-8-methyl-4-(((S)-1-methylpyrrolidin-2-yl)methoxy)-1H-[1,2,3]triazolo[4,5-c]quinolin-1-yl)-1-((E)-4-methoxybut-2-enoyl)piperidin-2-yl)acetonitrile], the IC50 (in experiment [1]; at KRAS G12C) was ≤ 100 nM throughout.

As for `C=CC(=O)N1CC[C@H](n2nnc3c(N4CC(N(C)C)C4)nc4c(Cl)c(-c5cccc(Cl)c5C)c(Cl)cc4c32)C[C@H]1CC#N` [Example 273, 2-((2S,4S)-1-acryloyl-4-(6,8-dichloro-7-(3-chloro-2-methylphenyl)-4-(3-(dimethylamino)azetidin-1-yl)-1H-[1,2,3]triazolo[4,5-c]quinolin-1-yl)piperidin-2-yl)acetonitrile], the IC50 (in experiment [1]; at KRAS G12C) was ≤ 100 nM in each case.

Turning to `CC#CC(=O)N1CC[C@H](n2cnc3c(N4CC(C)(N(C)C)C4)nc4c(F)c(-c5c(C)c(Cl)cc6[nH]ncc56)c(Cl)cc4c32)C[C@H]1CC#N` [Example 81a, 2-((2S,4S)-1-(but-2-ynoyl)-4-(8-chloro-7-(6-chloro-5-methyl-1H-indazol-4-yl)-4-(3-(dimethyl-amino)-3-methylazetidin-1-yl)-6-fluoro-1H-imidazo[4,5-c]quinolin-1-yl)piperidin-2-yl)acetonitrile], the IC50 (in experiment [1]; at KRAS G12C) was ≤ 100 nM each time.

For `Cc1cccc(-c2c(C)cc3c(nc(N4CC(N(C)C)C4)c4nnn([C@H]5CCN(C(=O)/C=C/CF)[C@H](CC#N)C5)c43)c2F)c1Cl` [Example 248, 2-((2S,4S)-4-(7-(2-chloro-3-methylphenyl)-4-(3-(dimethylamino)azetidin-1-yl)-6-fluoro-8-methyl-1H-[1,2,3]triazolo[4,5-c]quinolin-1-yl)-1-((E)-4-fluorobut-2-enoyl)piperidin-2-yl)acetonitrile], the IC50 (in experiment [1]; on KRAS G12C) was ≤ 100 nM throughout.

As to `C=CC(=O)N1CC[C@H](n2cnc3c(N4CC(N(C)C)C4)nc4c(F)c(-c5ccc(F)c6ccccc56)c(Cl)cc4c32)C[C@H]1CC#N` [Example 67, 2-((2S,4S)-1-acryloyl-4-(8-chloro-4-(3-(dimethylamino)azetidin-1-yl)-6-fluoro-7-(4-fluoronaphthalen-1-yl)-1H-imidazo[4,5-c]quinolin-1-yl)piperidin-2-yl)acetonitrile], the IC50 (in experiment [1]; on KRAS G12C) was ≤ 100 nM in each case.

`C=CC(=O)N1CC[C@H](n2cnc3c(N4CC(C)(N(C)C)C4)nc4c(F)c(-c5ccc(F)cc5)c(Cl)cc4c32)C[C@H]1CC#N` [Example 120, 2-((2S,4S)-1-acryloyl-4-(8-chloro-4-(3-(dimethylamino)-3-methylazetidin-1-yl)-6-fluoro-7-(4-fluorophenyl)-1H-imidazo[4,5-c]quinolin-1-yl)piperidin-2-yl)acetonitrile]: the IC50 (in experiment [1]; on KRAS G12C) was ≤ 100 nM in each case.

With `CC#CC(=O)N1CC[C@H](n2cnc3c(N4CC(N(C)C)C4)nc4c(F)c(-c5cccc(C)c5C(F)(F)F)c(Cl)cc4c32)C[C@H]1CC#N` [Example 263, 2-((2S,4S)-1-(but-2-ynoyl)-4-(8-chloro-4-(3-(dimethylamino)azetidin-1-yl)-6-fluoro-7-(3-methyl-2-(trifluoromethyl)phenyl)-1H-imidazo[4,5-c]quinolin-1-yl)piperidin-2-yl)acetonitrile], the IC50 (in experiment [1]; on KRAS G12C) was ≤ 100 nM in each case.

Consider `C=CC(=O)N1CCC(n2cnc3c(-c4c(O)cccc4F)nc4c(F)c(-c5c(O)cccc5F)c(Cl)cc4c32)CC1` [Example 12, 1-(4-(8-chloro-6-fluoro-4,7-bis(2-fluoro-6-hydroxyphenyl)-1H-imidazo[4,5-c]-quinolin-1-yl)piperidin-1-yl)prop-2-en-1-one], for which the IC50 in experiment [1] was in the range of 1000 to 5000 nM; at KRAS G12C it was 100 to 1000 nM.

For the molecule `Cc1nccn1-c1nc2c(F)c(-c3ccccc3)c(Cl)cc2c2c1nnn2[C@H]1CCN(C(=O)/C=C/CN(C)C)[C@H](CC#N)C1` [Example 153, 2-((2S,4S)-4-(8-chloro-6-fluoro-4-(2-methyl-1H-imidazol-1-yl)-7-phenyl-1H-[1,2,3]triazolo[4,5-c]quinolin-1-yl)-1-((E)-4-(dimethylamino)but-2-enoyl)piperidin-2-yl)acetonitrile], the IC50 (in experiment [1]; on KRAS G12C) was ≤ 100 nM in each case.

With `Cc1cccc(-c2c(C)cc3c(nc(N4CCOCC4=O)c4nnn([C@H]5CCN(C(=O)/C=C/CF)[C@H](CC#N)C5)c43)c2F)c1Cl` [Example 261, 2-((2S,4S)-4-(7-(2-chloro-3-methylphenyl)-6-fluoro-8-methyl-4-(3-oxomorpholino)-1H-[1,2,3]triazolo[4,5-c]quinolin-1-yl)-1-((E)-4-fluorobut-2-enoyl)piperidin-2-yl)acetonitrile], the IC50 (in experiment [1]; at KRAS G12C) was ≤ 100 nM each time.

Turning to `C=CC(=O)N1CC[C@H](n2cnc3c(N4CC(N(C)C)C4)nc4c(F)c(-c5cccc6ccccc56)c(Cl)cc4c32)C[C@H]1CC#N` [Example 46, 2-((2S,4S)-1-acryloyl-4-(8-chloro-4-(3-(dimethylamino)azetidin-1-yl)-6-fluoro-7-(naphthalen-1-yl)-1H-imidazo[4,5-c]quinolin-1-yl)piperidin-2-yl)acetonitrile], the IC50 (in experiment [1]; at KRAS G12C) was ≤ 100 nM each time.

For `CC#CC(=O)N1CC[C@H](n2nnc3c(OC[C@@H]4CCCN4C)nc4c(F)c(-c5cccc(C)c5Cl)c(CCC#N)cc4c32)C[C@H]1CC#N` (single isomer, unassigned) [Example 242a], the IC50 (in experiment [1]; on KRAS G12C) was ≤ 100 nM throughout.

As for `Cc1cccc(-c2c(C)cc3c(nc(N4CC(C)(N(C)C)C4)c4nnn([C@H]5CCN(C(=O)/C=C/CF)[C@H](CC#N)C5)c43)c2F)c1Cl` [Example 256, 2-((2S,4S)-4-(7-(2-chloro-3-methylphenyl)-4-(3-(dimethylamino)-3-methylazetidin-1-yl)-6-fluoro-8-methyl-1H-[1,2,3]triazolo[4,5-c]quinolin-1-yl)-1-((E)-4-fluorobut-2-enoyl)piperidin-2-yl)acetonitrile], the IC50 (in experiment [1]; at KRAS G12C) was ≤ 100 nM in each case.

With `C=CC(=O)N1CC[C@H](n2cnc3c(N4CC(C)(N(C)C)C4)nc4c(F)c(-c5ccc(F)cc5)c(C)cc4c32)C[C@H]1CC#N` [Example 121, 2-((2S,4S)-1-acryloyl-4-(4-(3-(dimethylamino)-3-methylazetidin-1-yl)-6-fluoro-7-(4-fluorophenyl)-8-methyl-1H-imidazo[4,5-c]quinolin-1-yl)piperidin-2-yl)acetonitrile], the IC50 (in experiment [1]; at KRAS G12C) was ≤ 100 nM each time.

On to `C=CC(=O)N1CC[C@H](n2nnc3c(N4CC(N(C)C)C4)nc4c(F)c(-c5cccc(C)c5Cl)c(C)cc4c32)C[C@H]1CC#N` [Example 247, 2-((2S,4S)-1-acryloyl-4-(7-(2-chloro-3-methylphenyl)-4-(3-(dimethylamino)azetidin-1-yl)-6-fluoro-8-methyl-1H-[1,2,3]triazolo[4,5-c]quinolin-1-yl)piperidin-2-yl)acetonitrile], for which the IC50 (in experiment [1]; on KRAS G12C) was ≤ 100 nM in each case.
